Literature values in patent US10449180B2, “Macrolide particulates, methods for preparation, and medical devices associated therewith” (Surmodics, Inc., priority 2013, dated 2019).

- solubility in N,N-dimethylformamide (N,N-dimethylformamide): soluble
- solubility in acetone (acetone): soluble
- solubility in ether (ether): soluble
- solubility in water (water): insoluble
SMILES: CO[C@H]1C[C@@H]2CC[C@@H](C)[C@@](O)(O2)C(=O)C(=O)N2CCCC[C@H]2C(=O)O[C@H]([C@H](C)C[C@@H]2CC[C@@H](O)[C@H](OC)C2)CC(=O)[C@H](C)/C=C(\C)[C@@H](O)[C@@H](OC)C(=O)[C@H](C)C[C@H](C)/C=C/C=C/C=C/1C [Rapamycin, rapamycin]
